pIC50: −log10 of the molar value.

In experiment [1] the target is human immunoproteasome β5i (Homo sapiens, UniProt P28062). Kind of experiment: IC50 against chymotryptic activity of human immunoproteasome (Hu i-20S, Ac-ANW-AMC substrate). It counts as biochemical. The conditions noted are these: 0.4 nM Hu i-20S, 15 μM Ac-ANW-AMC, 0.02% SDS, pH 7.4, 37° C. On the procedure: (§1) Measurement of IC50s of Dipeptidomimetics Against Chymotryptic Activities of the Human Constitutive Proteasome and Immunoproteasome
(§2) Assays were conducted on a SpectraMax Gemini plate-reader from Molecular Devices (Sunnyvale, CA). In a black 96-well plate, 100 μL of pre-warmed assay mixture containing 0.4 nM Hu i-20S or 0.2 nM Hu c-20S, 15 μM N-acetyl-Alanine-Asparagine-Tryptophan-7-amino-4-methylcoumarin (Ac-ANW-AMC) (substrate for i-20S) or 25 μM N-succinyl-Leucine-Leucine-Valine-Tyrosine-7-amino-4-methylcoumarin (suc-LLVY-AMC) (substrate for c-20S), 0.02% SDS in buffer (50 mM HEPES, 0.5 mM EDTA, pH 7.4) was added to the wells that contained 1 μL inhibitor at 100× indicated concentrations in DMSO. The reaction progress of each well was recorded by monitoring fluorescence at 460 nm (λex=360 nm) for 120 minutes at 37° C. Velocities were derived from the initial linear range of the curves and the IC50s were obtained by plotting the percentage of inhibitor versus inhibitor concentrations (FIG. 1). […]

In experiment [2] the target is human constitutive proteasome β5c (Homo sapiens, UniProt P28074). In words: IC50 against chymotryptic activity of human constitutive proteasome (Hu c-20S, suc-LLVY-AMC substrate). To be noted: 0.2 nM Hu c-20S, 25 μM suc-LLVY-AMC, 0.02% SDS, pH 7.4, 37° C. The class given is biochemical. The method, then: as §1, §2

As to `C[C@@H](CC(=O)NCc1cccc2ccccc12)NC(=O)[C@H](CC(=O)NC(C)(C)C)NC(=O)OC(C)(C)C` [PK52272, tert-butyl ((S)-4-(tert-butylamino)-1-(((S)-4-((naphthalen-1-ylmethyl)amino)-4-oxobutan-2-yl)amino)-1,4-dioxobutan-2-yl)carbamate], the negative logarithm of the IC50 (pIC50) (in general, the IC50 on a negative log10 scale, so that one unit is a factor of ten) was 6.82 in experiment [1] and under 4.00 in experiment [2].

As for `Cc1ccc(S(=O)(=O)N[C@H](CC(=O)N[C@@H](C)C(=O)NCc2cccc3ccccc23)CC(=O)NC(C)(C)C)cc1` [PK52279, (R)—N^1-(tert-butyl)-3-(4-methylphenylsulfonamido)-N^5—((S)-1-((naphthalen-1-ylmethyl)amino)-1-oxopropan-2-yl)pentanediamide], the pIC50 in experiment [1] is 7.84; in experiment [2] it was 4.46. In the case of `Cc1ccc(S(=O)(=O)N[C@@H](CCC(=O)NC(C)(C)C)CC(=O)N[C@@H](C)C(=O)NCc2cccc3ccccc23)cc1` [PK52290, (S)—N^6-(tert-butyl)-3-(4-methylphenylsulfonamido)-N^1—((S)-1-((naphthalen-1-ylmethyl)amino)-1-oxopropan-2-yl)hexanediamide], the negative-log IC50 (pIC50) in experiment [1] is 5.80; in experiment [2], 4.86. Consider `Cc1ccc(S(=O)(=O)N[C@H](CC(=O)N[C@@H](C)CC(=O)NCc2cccc3ccccc23)CC(=O)NC(C)(C)C)cc1` [PK52291, (R)—N^1-(tert-butyl)-3-(4-methylphenylsulfonamido)-N^5—((S)-4-((naphthalen-1-ylmethyl)amino)-4-oxobutan-2-yl)pentanediamide], for which the negative logarithm of the IC50 (pIC50) in experiment [1] is 5.06; in experiment [2] it was under 4.00.

Regarding `C[C@@H](CC(=O)NCc1cccc2ccccc12)NC(=O)[C@H](CC(=O)NC(C)(C)C)NS(=O)(=O)C1CC1` [PK52295, (S)—N^4-(tert-butyl)-2-(cyclopropanesulfonamido)-N^1—((S)-4-((naphthalen-1-ylmethyl)amino)-4-oxobutan-2-yl)succinamide], the negative logarithm of the IC50 (pIC50) in experiment [1] is 6.85.

Turning to `Cc1ccc(S(=O)(=O)N[C@@H](CCC(=O)NC(C)(C)C)C(=O)N[C@@H](C)C(=S)NCc2cccc3ccccc23)cc1` [PK53021], the pIC50 was 6.17 in experiment [1] and 4.87 in experiment [2]. For `Cc1cc(C(=O)N[C@@H](CC(=O)NC(C)(C)C)C(=O)N[C@@H](C)CC(=O)NCc2cccc3ccccc23)no1` [PKS2249, (S)—N^4-(tert-butyl)-2-(5-methylisoxazole-3-carboxamido)-N^1—((S)-4-((naphthalen-1-ylmethyl)amino)-4-oxobutan-2-yl)succinamide] the same measures were 6.74 and 4.79.

In the case of `C[C@@H](CC(=O)NCc1cccc2ccccc12)NC(=O)[C@H](CC(=O)NC(C)(C)C)NC(=O)CCc1ccccc1` [PKS2251, (S)—N^4-(tert-butyl)-N^1—((S)-4-((naphthalen-1-ylmethyl)amino)-4-oxobutan-2-yl)-2-(3-phenylpropanamido)succinamide], the values for the pIC50 in experiment [1] and in experiment [2] were 7.35 and 4.49, respectively. The like results for `Cc1ccc(S(=O)(=O)N[C@@H](CC(=O)NC(C)(C)C)C(=O)N[C@@H](C)CC(=O)NCc2cccc3ccccc23)cc1` [PKS2252, (S)—N^4-(tert-butyl)-2-((4-methylphenyl)sulfonamido)-N^1—((S)-4-((naphthalen-1-ylmethyl)amino)-4-oxobutan-2-yl)succinamide] were, in that order, 8.19 and 5.06. `C[C@@H](CC(=O)NCc1cccc2ccccc12)NC(=O)[C@H](CCC(=O)NC(C)(C)C)NC(=O)CCc1ccccc1` [PKS2253, (S)—N^5-(tert-butyl)-N^1—((S)-4-((naphthalen-1-ylmethyl)amino)-4-oxobutan-2-yl)-2-(3-phenylpropanamido)pentanediamide]: the negative-log IC50 (pIC50) in experiment [1] was 6.51; in experiment [2] it was 4.75. For `C[C@@H](CC(=O)NCc1cccc2ccccc12)NC(=O)[C@H](CC(=O)NC(C)(C)C)NS(=O)(=O)c1ccccc1` [PKS2260, (S)—N^4-(tert-butyl)-N^1—((S)-4-((naphthalen-1-ylmethyl)amino)-4-oxobutan-2-yl)-2-(phenylsulfonamido)succinamide] the same measures were 7.95 and 4.78. The like results for `C[C@H](NC(=O)C[C@H](CC(=O)NC(C)(C)C)NC(=O)CCc1ccccc1)C(=O)NCc1cccc2ccccc12` [PKS2278, (R)—N^1-(tert-butyl)-N^5—((S)-1-((naphthalen-1-ylmethyl)amino)-1-oxopropan-2-yl)-3-(3-phenylpropanamido)pentanediamide] were, in that order, 5.65 and under 4.00. For `C[C@@H](CC(=O)NCc1cccc2ccccc12)NC(=O)C[C@H](CC(=O)NC(C)(C)C)NC(=O)CCc1ccccc1` [PKS2292, (R)—N^1-(tert-butyl)-N^5—((S)-4-((naphthalen-1-ylmethyl)amino)-4-oxobutan-2-yl)-3-(3-phenylpropanamido)pentanediamide], the pIC50 in experiment [1] and in experiment [2] was under 4.00 each time. Regarding `C[C@H](NC(=O)[C@H](CCC(=O)NC(C)(C)C)NC(=O)CCc1ccccc1)C(=S)NCc1cccc2ccccc12` [PKS3020], the pIC50 in experiment [1] is 6.10; in experiment [2] it was 5.15.

As for `C[C@@H](CC(=O)NCc1cccc2ccccc12)NC(=O)[C@H](CC(=O)NC(C)(C)C)NC(=O)C(=O)c1c[nH]c2ccccc12` [PKS3054], the results for the pIC50 in experiment [1] and in experiment [2] were 8.32 and 6.63, respectively. The like results for `C[C@H](NC(=O)C[C@H](CC(=O)NC(C)(C)C)NC(=O)OC(C)(C)C)C(=O)Nc1ccccc1` [PKS3065] were, in that order, under 4.00 and under 4.00. The like results for `C[C@@H](CC(=O)Nc1cccc2ccccc12)NC(=O)[C@H](CC(=O)NC(C)(C)C)NC(=O)CCc1ccccc1` [PKS3081] were, in that order, 4.86 and under 4.00. The like results for `CC(C)(C)NC(=O)C[C@H](NC(=O)CCc1ccccc1)C(=O)NCCC(=O)NCc1cccc2ccccc12` [PKS21220] were, in that order, 6.18 and 4.29.
